Results as given in patent US20250114345A1, “COMPOUNDS AND COMPOSITIONS AS CBP/P300 DEGRADERS AND USES THEREOF” (Oncopia Therapeutics, Inc. d/b/a/ SK Life Science Labs, priority 2023, published 2025).

Biological target: T1, p300 (Homo sapiens, UniProt Q09472)
T1 construct: host or cells: A549 P300 HiBit cells
Test: P300 degradation, HiBit technology in A549 P300 HiBit cells (2 h)
Assay type: cell-based
Conditions: 2 hrs post treatment; for Dmax: A549, A549 P300 HiBit cells; for DC50: A549 P300 HiBit cells
Outline: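 Cells: A549 HiBiT-tagged lines, 0.2×10^4/well, F-12K + 10% HI-FBS, equilibrated overnight. Tx: serial dilution of cpd (10 mM DMSO stock). Readout: HiBiT lytic reagent, 10 min RT shaking, luminescence → potency, Dmax.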

T1 sequence (Q09472 whole entry): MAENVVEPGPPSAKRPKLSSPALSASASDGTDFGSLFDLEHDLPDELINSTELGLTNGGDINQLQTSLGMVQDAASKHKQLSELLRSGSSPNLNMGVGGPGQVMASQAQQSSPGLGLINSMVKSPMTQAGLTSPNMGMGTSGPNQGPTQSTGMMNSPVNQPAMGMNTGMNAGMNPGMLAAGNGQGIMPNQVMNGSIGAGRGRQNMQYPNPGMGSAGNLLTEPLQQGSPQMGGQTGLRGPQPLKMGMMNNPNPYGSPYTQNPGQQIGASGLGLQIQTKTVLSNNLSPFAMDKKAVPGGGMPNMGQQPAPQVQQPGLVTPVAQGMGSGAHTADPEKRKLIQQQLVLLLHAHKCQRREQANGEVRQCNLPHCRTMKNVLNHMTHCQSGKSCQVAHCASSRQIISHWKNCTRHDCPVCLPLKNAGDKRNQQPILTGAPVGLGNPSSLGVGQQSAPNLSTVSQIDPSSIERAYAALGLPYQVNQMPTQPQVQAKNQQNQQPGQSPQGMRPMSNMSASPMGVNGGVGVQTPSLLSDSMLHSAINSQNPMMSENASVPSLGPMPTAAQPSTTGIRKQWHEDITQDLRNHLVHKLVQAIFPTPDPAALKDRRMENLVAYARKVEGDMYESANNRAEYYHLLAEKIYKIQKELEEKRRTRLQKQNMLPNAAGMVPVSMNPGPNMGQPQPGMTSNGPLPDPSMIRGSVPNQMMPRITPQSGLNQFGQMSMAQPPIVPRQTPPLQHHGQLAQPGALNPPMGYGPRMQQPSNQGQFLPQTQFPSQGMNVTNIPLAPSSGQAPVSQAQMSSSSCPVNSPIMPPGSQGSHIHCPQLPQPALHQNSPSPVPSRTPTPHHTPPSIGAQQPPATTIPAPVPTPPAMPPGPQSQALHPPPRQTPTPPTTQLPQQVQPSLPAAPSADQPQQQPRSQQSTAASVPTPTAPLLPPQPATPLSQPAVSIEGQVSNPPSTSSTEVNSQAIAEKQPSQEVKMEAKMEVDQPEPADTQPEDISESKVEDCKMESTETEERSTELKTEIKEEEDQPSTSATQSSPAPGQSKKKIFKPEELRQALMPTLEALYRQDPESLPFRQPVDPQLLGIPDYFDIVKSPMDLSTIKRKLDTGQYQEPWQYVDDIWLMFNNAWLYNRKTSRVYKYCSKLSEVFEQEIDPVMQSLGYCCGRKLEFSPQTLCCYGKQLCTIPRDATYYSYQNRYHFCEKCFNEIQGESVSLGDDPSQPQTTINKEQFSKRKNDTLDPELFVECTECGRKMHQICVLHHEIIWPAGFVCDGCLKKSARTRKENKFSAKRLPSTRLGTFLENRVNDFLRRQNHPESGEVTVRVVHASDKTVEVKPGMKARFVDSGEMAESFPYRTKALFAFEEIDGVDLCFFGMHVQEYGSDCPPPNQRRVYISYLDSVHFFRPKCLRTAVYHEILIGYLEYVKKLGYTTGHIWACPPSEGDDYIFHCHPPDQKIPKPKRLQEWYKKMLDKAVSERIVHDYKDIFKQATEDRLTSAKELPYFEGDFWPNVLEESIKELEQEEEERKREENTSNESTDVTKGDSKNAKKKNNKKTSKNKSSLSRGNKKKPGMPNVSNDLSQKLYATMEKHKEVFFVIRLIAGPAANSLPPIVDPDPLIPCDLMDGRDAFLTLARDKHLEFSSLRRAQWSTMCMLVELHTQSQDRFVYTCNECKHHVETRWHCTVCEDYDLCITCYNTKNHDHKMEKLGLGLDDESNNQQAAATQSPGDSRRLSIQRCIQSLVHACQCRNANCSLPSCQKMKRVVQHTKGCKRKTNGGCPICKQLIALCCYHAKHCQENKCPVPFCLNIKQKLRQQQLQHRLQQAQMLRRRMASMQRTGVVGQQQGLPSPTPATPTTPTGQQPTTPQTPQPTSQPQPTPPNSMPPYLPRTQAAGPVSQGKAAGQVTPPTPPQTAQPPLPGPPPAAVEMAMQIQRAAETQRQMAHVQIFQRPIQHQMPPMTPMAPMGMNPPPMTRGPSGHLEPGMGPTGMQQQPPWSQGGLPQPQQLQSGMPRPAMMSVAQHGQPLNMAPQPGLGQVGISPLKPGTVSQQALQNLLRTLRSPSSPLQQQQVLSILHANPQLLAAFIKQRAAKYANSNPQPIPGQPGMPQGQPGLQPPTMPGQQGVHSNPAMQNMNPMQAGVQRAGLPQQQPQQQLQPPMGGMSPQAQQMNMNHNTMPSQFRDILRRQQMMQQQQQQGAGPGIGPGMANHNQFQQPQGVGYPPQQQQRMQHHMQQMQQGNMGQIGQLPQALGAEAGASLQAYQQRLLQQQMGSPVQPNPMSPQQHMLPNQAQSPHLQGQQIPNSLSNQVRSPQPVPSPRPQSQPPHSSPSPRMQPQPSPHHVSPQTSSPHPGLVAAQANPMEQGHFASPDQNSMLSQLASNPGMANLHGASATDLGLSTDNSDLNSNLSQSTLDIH

Row | Structure (SMILES) | Dmax [%] | DC50 [nM]
1 | Cc1cc(N2CCCc3nc(-c4ccc(C(=O)NCC#Cc5cc6c(C7CCC(=O)NC7=O)cccc6o5)nc4)ncc32)cc2c1n(C)c(=O)n2C (centres unmarked) [Example A188, N-(3-(4-(2,6-dioxo-piperidin-3-yl)benzofuran-2-yl)prop-2-yn-1-yl)-5-(5-(1,3,7-trimethyl-2-oxo-2,3-dihydro-1H-benzo[d]imidazol-5-yl)-5,6,7,8-tetrahydropyrido[3,2-d]pyrimidin-2-yl)picolinamide] | > 80 | < 1
2 | Cc1cc(-c2ncc(N(C)c3ccc4c(c3)n(C)c(=O)n4C)cn2)cnc1C(=O)NCC#Cc1cc2c(C3CCC(=O)NC3=O)nccc2o1 (centres unmarked) [Example A192, 5-(5-((1,3-dimethyl-2-oxo-2,3-dihydro-1H-benzo[d]imidazol-5-yl)(methyl)amino)pyrimidin-2-yl)-N-(3-(4-(2,6-dioxopiperidin-3-yl)furo[3,2-c]pyridin-2-yl)prop-2-yn-1-yl)-3-methylpicolinamide] | > 80 | 1 to 9.9
3 | CC(C)c1cc(-c2cccc3cc(-c4ccc(C(=O)NCC#Cc5cnc6occ(C7CCC(=O)NC7=O)c6c5)nc4)ncc23)cc2c1n(C)c(=O)n2C (centres unmarked) [Example A196, N-(3-(3-(2,6-dioxo-piperidin-3-yl)furo[2,3-b]pyridin-5-yl)prop-2-yn-1-yl)-5-(8-(7-isopropyl-1,3-dimethyl-2-oxo-2,3-dihydro-1H-benzo[d]imidazol-5-yl)isoquinolin-3-yl)picolinamide] | > 80 | 1 to 9.9
4 | Cc1nc(-c2cnc(N(C)c3cc(C4CCOCC4)c4c(c3)n(C)c(=O)n4C)cn2)cnc1C(=O)NCC#Cc1cc2c(C3CCC(=O)NC3=O)nccc2o1 (centres unmarked) [Example A200, 5′-((1,3-dimethyl-2-oxo-7-(tetrahydro-2H-pyran-4-yl)-2,3-dihydro-1H-benzo [d]imidazol-5-yl) (methyl)amino)-N-(3-(4-(2,6-dioxo-piperidin-3-yl)furo[3,2-c]pyridin-2-yl)prop-2-yn-1-yl)-6-methyl-[2,2′-bipyrazine]-5-carboxamide] | > 80 | 1 to 9.9
5 | Cc1cc(-c2ncc(N(C)c3cc(C4CCOCC4)c4c(c3)n(C)c(=O)n4C)cn2)cnc1C(=O)NCC#Cc1ccc2occ(C34CC(C3)C(=O)NC4=O)c2c1 [Example A201, 5-(5-((1,3-dimethyl-2-oxo-7-(tetrahydro-2H-pyran-4-yl)-2,3-dihydro-1H-benzo[d]imidazol-5-yl)(methyl)amino)pyrimidin-2-yl)-N-(3-(3-(2,4-dioxo-3-azabicyclo[3.1.1]heptan-1-yl)benzofuran-5-yl)prop-2-yn-1-yl)-3-methylpicolinamide] | > 80 | 1 to 9.9
6 | Cn1c(=O)n(C)c2c(N3CCC3)nc(-c3cccc4cc(-c5ccc(C(=O)NCC#Cc6cc7c(C8CCC(=O)NC8=O)cccc7o6)nc5)ncc34)cc21 (centres unmarked) [Example A205, 5-(8-(4-(azetidin-1-yl)-1,3-dimethyl-2-oxo-2,3-dihydro-1H-imidazo[4,5-c]pyridin-6-yl)iso-quinolin-3-yl)-N-(3-(4-(2,6-dioxopiperidin-3-yl)benzofuran-2-yl)prop-2-yn-1-yl)picolinamide] | > 80 | 1 to 9.9
7 | Cn1c(=O)n(C)c2c(N3CCOCC3)nc(-c3cccc4cc(-c5ccc(C(=O)NCC#Cc6cc7c(C8CCC(=O)NC8=O)nccc7o6)nc5)ncc34)cc21 (centres unmarked) [Example A206, 5-(8-(1,3-dimethyl-4-morpholino-2-oxo-2,3-dihydro-1H-imidazo[4,5-c]pyridin-6-yl)isoquinolin-3-yl)-N-(3-(4-(2,6-dioxopiperidin-3-yl)furo[3,2-c]pyridin-2-yl)prop-2-yn-1-yl)picolinamide] | > 80 | < 1
8 | Cc1cc(N2CCN(C)c3cc(-c4ccc(C(=O)NCC#Cc5cc6c(C7CCC(=O)NC7=O)nccc6o5)nc4)ncc32)cc2c1n(C)c(=O)n2C (centres unmarked) [Example A209, N-(3-(4-(2,6-dioxo-piperidin-3-yl)furo [3,2-c]pyridin-2-yl)prop-2-yn-1-yl)-5-(1-methyl-4-(1,3,7-trimethyl-2-oxo-2,3-dihydro-1H-benzo[d]imidazol-5-yl)-1,2,3,4-tetrahydropyrido[3,4-b]pyrazin-7-yl)picolinamide] | > 80 | < 1
9 | Cn1c(=O)n(C)c2cc(N3CCCc4nc(-c5ccc(C(=O)NCC#Cc6ccc7occ(C89CC(C8)C(=O)NC9=O)c7c6)nc5)ncc43)ccc21 [Example A215, 5-(5-(1,3-dimethyl-2-oxo-2,3-dihydro-1H-benzo[d]imidazol-5-yl)-5,6,7,8-tetrahydropyrido[3,2-d]pyrimidin-2-yl)-N-(3-(3-(2,4-dioxo-3-azabicyclo[3.1.1]heptan-1-yl)benzofuran-5-yl)prop-2-yn-1-yl)picolinamide] | 60 to 79 | 10 to 99
10 | CN1CCN(c2ccc3c(c2)n(C)c(=O)n3C)c2cnc(-c3ccc(C(=O)NCC#Cc4cc5c(C6CCC(=O)NC6=O)nccc5o4)nc3)cc21 (centres unmarked) [Example A218, 5-(4-(1,3-dimethyl-2-oxo-2,3-dihydro-1H-benzo[d]imidazol-5-yl)-1-methyl-1,2,3,4-tetrahydropyrido[3,4-b]pyrazin-7-yl)-N-(3-(4-(2,6-dioxo-piperidin-3-yl)furo[3,2-c]pyridin-2-yl)prop-2-yn-1-yl)picolinamide] | > 80 | < 1
11 | Cc1cc(N2CCN(C)c3nc(-c4ccc(C(=O)NCC#Cc5cc6c(C7CCC(=O)NC7=O)nccc6o5)nc4)ncc32)cc2c1n(C)c(=O)n2C (centres unmarked) [Example A220, N-(3-(4-(2,6-dioxo-piperidin-3-yl)furo[3,2-c]pyridin-2-yl)prop-2-yn-1-yl)-5-(8-methyl-5-(1,3,7-trimethyl-2-oxo-2,3-dihydro-1H-benzo [d]imidazol-5-yl)-5,6,7,8-tetrahydro-pteridin-2-yl)picolinamide] | > 80 | 1 to 9.9
12 | Cc1nc(-c2cnc(N(C)c3cc(C4CCOCC4)c4c(c3)n(C)c(=O)n4C)cn2)cnc1C(=O)NCC#Cc1cc2c(C3CCC(=O)NC3=O)cccc2o1 (centres unmarked) [Example A222, 5′-((1,3-dimethyl-2-oxo-7-(tetrahydro-2H-pyran-4-yl)-2,3-dihydro-1H-benzo[d]imidazol-5-yl)(methyl)amino)-N-(3-(4-(2,6-dioxo-piperidin-3-yl)benzofuran-2-yl)prop-2-yn-1-yl)-6-methyl-[2,2′-bipyrazine]-5-carboxamide] | > 80 | 1 to 9.9

Continued, values first:

Row | Dmax [%] | DC50 [nM] | Structure (SMILES)
13 | 60 to 79 | 1 to 9.9 | Cn1c(=O)n(C)c2cc(N3CCOc4nc(-c5ccc(C(=O)NCC#Cc6ccc7nnn(C8CCC(=O)NC8=O)c7c6)nc5)ncc43)ccc21 (centres unmarked) [Example A190, 5-(5-(1,3-dimethyl-2-oxo-2,3-dihydro-1H-benzo[d]imidazol-5-yl)-6,7-dihydro-5H-pyrimido[4,5-b][1,4]oxazin-2-yl)-N-(3-(1-(2,6-dioxopiperidin-3-yl)-1H-benzo[d] [1,2,3]triazol-6-yl)prop-2-yn-1-yl)picolinamide]
14 | < 20 | > 1000 | Cc1cc(-c2cnc(Nc3cc(C4CCOCC4)c4c(c3)n(C)c(=O)n4C)cn2)cnc1C(=O)NCC#Cc1cc2c(C3CCC(=O)NC3=O)cccc2o1 (centres unmarked) [Example A193]
15 | < 20 | > 1000 | Cc1cc(-c2cc(N(C)C)c(N(C)c3cc(C4CCOCC4)c4c(c3)n(C)c(=O)n4C)cn2)cnc1C(=O)NCC#Cc1cc2c(C3CCC(=O)NC3=O)cccc2o1 (centres unmarked) [Example A198, 5-((1,3-dimethyl-2-oxo-7-(tetrahydro-2H-pyran-4-yl)-2,3-dihydro-1H-benzo[d]imidazol-5-yl)(methyl)amino)-4-(dimethylamino)-N-(3-(4-(2,6-dioxopiperidin-3-yl)benzofuran-2-yl)prop-2-yn-1-yl)-5′-methyl-[2,3′-bipyridine]-6′-carboxamide]
16 | 60 to 79 | 10 to 99 | CC(C)c1cc(-c2cccc3cc(-c4ccc(C(=O)NCC#Cc5ccc6ncnc(C7CCC(=O)NC7=O)c6c5)nc4)ncc23)cc2c1n(C)c(=O)n2C (centres unmarked) [Example A214, N-(3-(4-(2,6-dioxo-piperidin-3-yl)quinazolin-6-yl)prop-2-yn-1-yl)-5-(8-(7-isopropyl-1,3-dimethyl-2-oxo-2,3-dihydro-1H-benzo [d]imidazol-5-yl)isoquinolin-3-yl)picolinamide]
17 | > 80 | 1 to 9.9 | Cn1c(=O)n(C)c2cc(N3CCCc4cc(-c5ccc(C(=O)NCC#Cc6cc7c(C8CCC(=O)NC8=O)cccc7o6)nc5)nnc43)ccc21 (centres unmarked) [Example A217, 5-(8-(1,3-dimethyl-2-oxo-2,3-dihydro-1H-benzo[d]imidazol-5-yl)-5,6,7,8-tetrahydropyrido[2,3-c]pyridazin-3-yl)-N-(3-(4-(2,6-dioxo-piperidin-3-yl)benzofuran-2-yl)prop-2-yn-1-yl)picolinamide]
18 | > 80 | 1 to 9.9 | CCN(c1cnc(-c2ccc(C(=O)NCC#Cc3cc4c(C5CCC(=O)NC5=O)cccc4o3)nc2)nc1)c1cc(C2CCOCC2)c2c(c1)n(C)c(=O)n2C (centres unmarked) [Example A224, 5-(5-((1,3-dimethyl-2-oxo-7-(tetrahydro-2H-pyran-4-yl)-2,3-dihydro-1H-benzo[d]imidazol-5-yl)(ethyl)amino)pyrimidin-2-yl)-N-(3-(4-(2,6-dioxopiperidin-3-yl)benzofuran-2-yl)prop-2-yn-1-yl)picolinamide]
19 | < 20 | > 1000 | Cc1cc(-c2ncc(N(C)c3cc(C4CCOCC4)c4c(c3)n(C)c(=O)n4C)c(N(C)C)n2)cnc1C(=O)NCC#Cc1cc2c(C3CCC(=O)NC3=O)cccc2o1 (centres unmarked) [Example A225, 5-(5-((1,3-dimethyl-2-oxo-7-(tetrahydro-2H-pyran-4-yl)-2,3-dihydro-1H-benzo[d]imidazol-5-yl)(methyl)amino)-4-(dimethylamino)pyrimidin-2-yl)-N-(3-(4-(2,6-dioxopiperidin-3-yl)benzofuran-2-yl)prop-2-yn-1-yl)-3-methylpicolinamide]
